Earlier results, collected in patent US11279710B2, “Processes for preparing ACC inhibitors and solid forms thereof” (Gilead Sciences, Inc., priority 2017, dated 2022).
pIC50: −log10 of the molar value.

Assays:
[1] = sucrose-fed rats, three weeks
pyruvate carboxylase = molecular target: T1, pyruvate carboxylase (Homo sapiens, UniProt P11498)
T1 sequence (P11498 21-1178): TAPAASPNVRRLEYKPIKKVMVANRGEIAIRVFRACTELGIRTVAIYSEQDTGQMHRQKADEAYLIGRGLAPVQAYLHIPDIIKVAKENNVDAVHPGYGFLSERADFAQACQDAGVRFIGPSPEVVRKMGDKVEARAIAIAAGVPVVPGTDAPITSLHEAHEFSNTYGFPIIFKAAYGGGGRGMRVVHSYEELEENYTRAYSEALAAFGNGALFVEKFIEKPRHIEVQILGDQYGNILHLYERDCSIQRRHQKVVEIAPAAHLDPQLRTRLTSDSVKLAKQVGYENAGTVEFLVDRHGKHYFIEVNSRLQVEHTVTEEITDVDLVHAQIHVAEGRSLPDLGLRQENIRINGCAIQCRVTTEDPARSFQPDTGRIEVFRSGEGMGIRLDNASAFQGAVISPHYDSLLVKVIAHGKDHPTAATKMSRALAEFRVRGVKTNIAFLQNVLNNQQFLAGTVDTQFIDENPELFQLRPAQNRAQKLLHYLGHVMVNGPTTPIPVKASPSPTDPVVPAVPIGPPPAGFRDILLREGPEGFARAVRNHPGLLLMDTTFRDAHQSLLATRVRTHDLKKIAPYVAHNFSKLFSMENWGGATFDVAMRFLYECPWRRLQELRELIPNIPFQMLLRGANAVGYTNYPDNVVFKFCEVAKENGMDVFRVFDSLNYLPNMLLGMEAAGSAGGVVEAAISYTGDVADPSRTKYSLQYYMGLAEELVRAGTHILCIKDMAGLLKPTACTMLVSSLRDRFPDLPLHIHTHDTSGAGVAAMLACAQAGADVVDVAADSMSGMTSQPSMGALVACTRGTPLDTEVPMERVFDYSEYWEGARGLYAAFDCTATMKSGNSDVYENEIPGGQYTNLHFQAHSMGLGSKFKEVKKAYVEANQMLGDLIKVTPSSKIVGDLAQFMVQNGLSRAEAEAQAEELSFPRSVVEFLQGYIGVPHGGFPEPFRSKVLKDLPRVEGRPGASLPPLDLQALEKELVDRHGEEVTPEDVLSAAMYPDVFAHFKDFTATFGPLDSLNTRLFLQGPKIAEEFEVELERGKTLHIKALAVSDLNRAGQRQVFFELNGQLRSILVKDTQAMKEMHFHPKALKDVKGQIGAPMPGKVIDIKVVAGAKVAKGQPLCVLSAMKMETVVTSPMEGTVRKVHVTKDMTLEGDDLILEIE

ACC1 = ACC1 isolated from rat, mouse, monkey and human
ACC2 = ACC2 isolated from rat, mouse, monkey and human
[2] = molecular target: T2, propionyl-CoA carboxylase (Homo sapiens, UniProt P05165+P05166)
T2 sequence (P05165 53-728): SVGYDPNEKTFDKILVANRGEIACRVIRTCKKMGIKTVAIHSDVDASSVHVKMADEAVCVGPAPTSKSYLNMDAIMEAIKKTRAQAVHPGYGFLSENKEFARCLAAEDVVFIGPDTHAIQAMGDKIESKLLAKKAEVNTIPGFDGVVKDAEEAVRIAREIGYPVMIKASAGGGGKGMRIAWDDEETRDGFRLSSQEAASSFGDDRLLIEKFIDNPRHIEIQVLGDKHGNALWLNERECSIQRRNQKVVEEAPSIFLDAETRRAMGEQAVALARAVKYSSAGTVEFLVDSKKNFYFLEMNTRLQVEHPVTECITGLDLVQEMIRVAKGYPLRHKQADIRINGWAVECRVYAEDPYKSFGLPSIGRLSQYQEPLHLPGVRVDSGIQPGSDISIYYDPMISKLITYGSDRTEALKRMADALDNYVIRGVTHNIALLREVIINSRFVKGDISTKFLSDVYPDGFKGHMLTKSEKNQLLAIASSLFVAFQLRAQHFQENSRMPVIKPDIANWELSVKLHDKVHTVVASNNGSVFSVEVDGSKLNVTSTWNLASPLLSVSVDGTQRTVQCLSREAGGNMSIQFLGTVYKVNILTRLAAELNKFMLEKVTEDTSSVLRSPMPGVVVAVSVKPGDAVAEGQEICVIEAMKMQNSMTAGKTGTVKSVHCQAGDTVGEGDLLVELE
T2 sequence (P05166 29-539): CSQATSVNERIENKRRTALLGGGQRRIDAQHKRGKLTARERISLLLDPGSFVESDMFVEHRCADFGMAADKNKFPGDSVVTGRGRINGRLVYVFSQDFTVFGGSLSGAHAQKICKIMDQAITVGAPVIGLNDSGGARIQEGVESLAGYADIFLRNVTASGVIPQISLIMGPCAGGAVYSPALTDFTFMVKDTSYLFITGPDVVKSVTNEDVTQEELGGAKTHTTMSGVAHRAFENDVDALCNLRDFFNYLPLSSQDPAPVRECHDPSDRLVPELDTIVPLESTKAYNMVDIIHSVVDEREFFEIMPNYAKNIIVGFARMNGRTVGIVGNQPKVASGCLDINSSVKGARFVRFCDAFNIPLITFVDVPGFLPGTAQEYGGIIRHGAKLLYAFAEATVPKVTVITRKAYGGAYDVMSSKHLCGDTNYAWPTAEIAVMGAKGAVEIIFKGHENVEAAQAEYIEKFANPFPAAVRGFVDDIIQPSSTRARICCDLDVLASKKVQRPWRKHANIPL

[3] = system: insulin-resistant rat muscle tissue; conditions: within 30 min of compound administration
[4] = rats, acute (46 min) treatment

Question: Which results are given for `O=C(c1c2ccccc2cc2ccccc12)N1CCC(N2CCC[C@@H](C(=O)N3CCOCC3)C2)CC1` [CP-640186]?
Answer: hyperinsulinemia produced by the high sucrose diet [1]: reduced; insulin sensitivity [1]: improved; lean body mass [1]: without reducing; leptin levels [1]: reduced; liver, muscle and adipose triglycerides [1]: time- and dose-dependently reduced; plasma glucose levels [1]: without changing; body weight ([1]; due to selective fat reduction): reduced; inhibition of pyruvate carboxylase (pyruvate carboxylase): without inhibiting; liver and adipose tissue FA synthesis (experimental animals): reduced; whole body FA oxidation (experimental animals): increased; malonyl-CoA concentration (lipogenic and oxidative tissues, fed and fasted state): acutely reduced; FA oxidation (rat muscle slices): stimulated; FA oxidation (C2C12 cells): stimulated; pIC50 (ACC1): ~7.22; pIC50 (ACC2): ~7.22; inhibition of propionyl-CoA carboxylase [2]: without inhibiting; insulin sensitivity [3]: stimulation; FA clearance [4]: stimulated; glucose clearance [4]: without decreasing; CPT-I activity (Hep-G2 cells): increased; FA synthesis (Hep-G2 cells): reduced; apoA1 secretion (Hep-G2 cells): without affecting; apoB secretion (Hep-G2 cells): reduced; cholesterol synthesis (Hep-G2 cells): without affecting; triglyceride synthesis and secretion (Hep-G2 cells): reduced

Question: For `COc1ccccc1[C@H](Cn1c(=O)n(C(C)(C)C(=O)O)c(=O)c2c(C)c(-c3ncco3)sc21)OC1CCOCC1` [Compound I, (R)-2-(1-(2-(2-methoxyphenyl)-2-((tetrahydro-2H-pyran-4-yl)oxy)ethyl)-5-methyl-6-(oxazol-2-yl)-2,4-dioxo-1,2-dihydrothieno[2,3-d]pyrimidin-3(4H)-yl)-2-methylpropanoic acid], which ACC inhibitory activity (ACC) is on record?
Answer: exhibits ACC inhibitory activity

Question: Which lipogenesis (human liposarcoma) does the source give for `CO[C@H]1CCCC[C@@H](c2ccccc2)OC(=O)[C@@H](C)[C@@]2(O)O[C@H]([C@@H](C)[C@H](O)[C@H]2OC)[C@@H](C)/C=C/[C@H]1OC` [soraphen A] here?
Answer: inhibited

Question: And the tumor cell growth (human liposarcoma)?
Answer: inhibited
